According to the Kinase Knowledgebase extract (Sharma et al. 2016):

Molecular target: CDK2 (UniProt P24941)
Assay: Enzyme Assay
Details: not given

Ki | SMILES
20 nM | Cn1cccc1CNC(=O)c1ccc(Nc2nc(N)c(C(=O)c3c(F)cccc3F)s2)cc1
25 nM | N#CCc1ccc(CNC(=O)c2ccc(Nc3nc(N)c(C(=O)c4c(F)cccc4F)s3)cc2)cc1

Same assay, conditions: concentration not given here

SMILES | inhibition
Nc1nc(Nc2ccc(C(=O)Nc3cccc(F)c3)cc2)sc1C(=O)c1c(F)cccc1F | -6%
Nc1nc(Nc2ccc(C(=O)NCCCN3CCCC3=O)cc2)sc1C(=O)c1c(F)cccc1F | -23%
Cc1cccc(Cl)c1NC(=O)c1ccc(Nc2nc(N)c(C(=O)c3c(F)cccc3F)s2)cc1 | -12%
CCOc1ccccc1CCNC(=O)c1ccc(Nc2nc(N)c(C(=O)c3c(F)cccc3F)s2)cc1 | -19%
Nc1nc(Nc2ccc(C(=O)Nc3ccc(Cl)nc3)cc2)sc1C(=O)c1c(F)cccc1F | -9%
Cc1ccc(NC(=O)c2ccc(Nc3nc(N)c(C(=O)c4c(F)cccc4F)s3)cc2)cc1Cl | -1%
CCOC(=O)c1ccc(NC(=O)c2ccc(Nc3nc(N)c(C(=O)c4c(F)cccc4F)s3)cc2)cc1 | 1%
CC(=O)c1ccc(NC(=O)c2ccc(Nc3nc(N)c(C(=O)c4c(F)cccc4F)s3)cc2)cc1 | -5%
CC(C)C[C@@H](CO)NC(=O)c1ccc(Nc2nc(N)c(C(=O)c3c(F)cccc3F)s2)cc1 | -16%
N#CCCSc1ccccc1NC(=O)c1ccc(Nc2nc(N)c(C(=O)c3c(F)cccc3F)s2)cc1 | -14%
COc1ccc(CNC(=O)c2ccc(Nc3nc(N)c(C(=O)c4c(F)cccc4F)s3)cc2)cc1OC | -2%
Cc1ccc(O)c(NC(=O)c2ccc(Nc3nc(N)c(C(=O)c4c(F)cccc4F)s3)cc2)c1 | -6%
Cc1cccc(NC(=O)c2ccc(Nc3nc(N)c(C(=O)c4c(F)cccc4F)s3)cc2)c1 | -7%
Cc1ccc(CCNC(=O)c2ccc(Nc3nc(N)c(C(=O)c4c(F)cccc4F)s3)cc2)cc1 | 14%
CSCC[C@@H](CO)NC(=O)c1ccc(Nc2nc(N)c(C(=O)c3c(F)cccc3F)s2)cc1 | -5%
Nc1nc(Nc2ccc(C(=O)NCCCCCCO)cc2)sc1C(=O)c1c(F)cccc1F | -5%
Nc1nc(Nc2ccc(C(=O)NCCc3c(Cl)cccc3Cl)cc2)sc1C(=O)c1c(F)cccc1F | -21%
N#CCCN(Cc1cccnc1)C(=O)c1ccc(Nc2nc(N)c(C(=O)c3c(F)cccc3F)s2)cc1 | -2%
Nc1nc(Nc2ccc(C(=O)Nc3ccc(Cl)cc3CO)cc2)sc1C(=O)c1c(F)cccc1F | -11%
CSc1ccc(NC(=O)c2ccc(Nc3nc(N)c(C(=O)c4c(F)cccc4F)s3)cc2)cc1 | -25%
Nc1nc(Nc2ccc(C(=O)N3CCN(CCCO)CC3)cc2)sc1C(=O)c1c(F)cccc1F | -14%
Cc1cccc(N2CCN(C(=O)c3ccc(Nc4nc(N)c(C(=O)c5c(F)cccc5F)s4)cc3)CC2C)c1 (stereo unspecified) | -23%
COc1ccc(OC)c(CCNC(=O)c2ccc(Nc3nc(N)c(C(=O)c4c(F)cccc4F)s3)cc2)c1 | -5%
Nc1nc(Nc2ccc(C(=O)Nc3ccc(Nc4ccccc4)cc3)cc2)sc1C(=O)c1c(F)cccc1F | -6%

More lines, now with the values ahead:

inhibition | SMILES
-6% | C=CCN(C)C(=O)c1ccc(Nc2nc(N)c(C(=O)c3c(F)cccc3F)s2)cc1
-7% | Nc1nc(Nc2ccc(C(=O)N[C@H](CO)CC3CCCCC3)cc2)sc1C(=O)c1c(F)cccc1F
-12% | CCN(C)C(=O)c1ccc(Nc2nc(N)c(C(=O)c3c(F)cccc3F)s2)cc1
-20% | CC(C)C(C)NC(=O)c1ccc(Nc2nc(N)c(C(=O)c3c(F)cccc3F)s2)cc1 (stereo unspecified)
-5% | Nc1nc(Nc2ccc(C(=O)NC3CC3)cc2)sc1C(=O)c1c(F)cccc1F
-7% | CCCCN(CCO)C(=O)c1ccc(Nc2nc(N)c(C(=O)c3c(F)cccc3F)s2)cc1
-7% | CC(CNC(=O)c1ccc(Nc2nc(N)c(C(=O)c3c(F)cccc3F)s2)cc1)N(C)C (stereo unspecified)
-3% | Nc1nc(Nc2ccc(C(=O)N3CCSC3)cc2)sc1C(=O)c1c(F)cccc1F
-21% | CC(=O)N(C)C1CCN(C(=O)c2ccc(Nc3nc(N)c(C(=O)c4c(F)cccc4F)s3)cc2)C1 (stereo unspecified)
-2% | CN(C(=O)c1ccc(Nc2nc(N)c(C(=O)c3c(F)cccc3F)s2)cc1)C1CCCCC1
-3% | CN(Cc1ccco1)C(=O)c1ccc(Nc2nc(N)c(C(=O)c3c(F)cccc3F)s2)cc1
-15% | Nc1nc(Nc2ccc(C(=O)N3CCCC3)cc2)sc1C(=O)c1c(F)cccc1F
-24% | Nc1nc(Nc2ccc(C(=O)N3CCCCC3CCO)cc2)sc1C(=O)c1c(F)cccc1F (stereo unspecified)
0% | Nc1nc(Nc2ccc(C(=O)NCC3CC3)cc2)sc1C(=O)c1c(F)cccc1F
-12% | CN(CCc1ccccc1)C(=O)c1ccc(Nc2nc(N)c(C(=O)c3c(F)cccc3F)s2)cc1
